# Data: paper PMC5218480 (PLoS ONE, 2017)
# Test system: MV-4-11 cells
# Assay: Gene expression microarray analysis (Affymetrix PrimeView) and GSEA
# Type: cell-based, human
# Set-up: RFU PODN (11730768_x_at) / Fold change /veh PODN (11730768_x_at) / RFU LINC00158 (11744669_a_at) / Fold change /veh LINC00158 (11744669_a_at) / RFU DUSP10 (11751237_a_at) / Fold change /veh DUSP10 (11751237_a_at) / RFU ID3 (11757404_x_at) / Fold change /veh ID3 (11757404_x_at) / RFU PLEKHG5 (11737974_s_at) / Fold change /veh PLEKHG5 (11737974_s_at) / RFU LRRC4B (11730491_at) / Fold change /veh LRRC4B (11730491_at) / RFU GIMAP4 (11747438_a_at) / Fold change /veh GIMAP4 (11747438_a_at) / RFU KRT8 (11758183_x_at) / Fold change /veh KRT8 (11758183_x_at) / RFU CNN1 (11734310_a_at) / Fold change /veh CNN1 (11734310_a_at) / RFU VPS37D (11726825_at) / Fold change /veh VPS37D (11726825_at) / RFU C10orf10 (11716522_x_at) / Fold change /veh C10orf10 (11716522_x_at) / RFU KIR2DL2 /// KIR2DL4 /// KIR2DL5A /// KIR2DL5B /// KIR2DS1 /// KIR2DS2 /// KIR2DS3 /// KIR2DS4 /// KIR3DL3 /// KIR3DL3 /// KIR3DS1 (11738374_at) / Fold change /veh KIR2DL2 /// KIR2DL4 /// KIR2DL5A /// KIR2DL5B /// KIR2DS1 /// KIR2DS2 /// KIR2DS3 /// KIR2DS4 /// KIR3DL3 /// KIR3DL3 /// KIR3DS1 (11738374_at) / RFU C1QL1 (11718748_at) / Fold change /veh C1QL1 (11718748_at) / RFU TMPRSS4 (11747572_a_at) / Fold change /veh TMPRSS4 (11747572_a_at) / RFU HAMP (11756126_x_at) / Fold change /veh HAMP (11756126_x_at) / RFU RNFT2 (11725882_a_at) / Fold change /veh RNFT2 (11725882_a_at) / RFU NR4A2 (11747474_a_at) / Fold change /veh NR4A2 (11747474_a_at) / RFU ABCC12 (11746883_a_at) / Fold change /veh ABCC12 (11746883_a_at) / RFU TMEM136 (11760407_x_at) / Fold change /veh TMEM136 (11760407_x_at) / RFU CLDN22 /// WWC2 (11732394_at) / Fold change /veh CLDN22 /// WWC2 (11732394_at) / RFU HLA-DPB1 (11760878_x_at) / Fold change /veh HLA-DPB1 (11760878_x_at) / RFU SPINT1 (11716480_a_at) / Fold change /veh SPINT1 (11716480_a_at) / RFU GAP43 (11754022_s_at) / Fold change /veh GAP43 (11754022_s_at) / RFU A4GNT (11735810_at) / Fold change /veh A4GNT (11735810_at) / RFU PRB3 (11715151_x_at) / Fold change /veh PRB3 (11715151_x_at) / RFU TUBB4B (11761932_at) / Fold change /veh TUBB4B (11761932_at) / RFU CAPN14 (11732068_a_at) / Fold change /veh CAPN14 (11732068_a_at) / RFU TMCC2 (11721928_a_at) / Fold change /veh TMCC2 (11721928_a_at) / RFU IRGQ (11745062_a_at) / Fold change /veh IRGQ (11745062_a_at) / RFU FAM174B (11720279_a_at) / Fold change /veh FAM174B (11720279_a_at) / RFU TMPRSS4 (11748680_a_at) / Fold change /veh TMPRSS4 (11748680_a_at) / RFU FAM212B (11763350_a_at) / Fold change /veh FAM212B (11763350_a_at) / RFU PLEKHG5 (11743358_a_at) / Fold change /veh PLEKHG5 (11743358_a_at) / RFU ZSCAN30 (11745921_a_at) / Fold change /veh ZSCAN30 (11745921_a_at) / RFU CMKLR1 (11741424_a_at) / Fold change /veh CMKLR1 (11741424_a_at) / RFU LOC101060620 /// MAPK8IP1 (11723275_at) / Fold change /veh LOC101060620 /// MAPK8IP1 (11723275_at) / RFU SPTSSB (11747773_x_at) / Fold change /veh SPTSSB (11747773_x_at) / RFU PRSS12 (11739890_at) / Fold change /veh PRSS12 (11739890_at) / RFU BIN1 (11741810_x_at) / Fold change /veh BIN1 (11741810_x_at) / RFU WNT11 (11732464_a_at) / Fold change /veh WNT11 (11732464_a_at) / RFU C10orf10 (11716521_a_at) / Fold change /veh C10orf10 (11716521_a_at) / RFU C5orf56 (11738089_at) / Fold change /veh C5orf56 (11738089_at) / RFU CYB561 (11721691_x_at) / Fold change /veh CYB561 (11721691_x_at) / RFU ANKRD19P (11752326_a_at) / Fold change /veh ANKRD19P (11752326_a_at) / RFU OR2T12 /// OR2T33 /// OR2T8 (11738714_s_at) / Fold change /veh OR2T12 /// OR2T33 /// OR2T8 (11738714_s_at) / RFU VCAN (11748164_a_at) / Fold change /veh VCAN (11748164_a_at) / RFU JSRP1 (11732532_at) / Fold change /veh JSRP1 (11732532_at) / RFU KRTAP10-11 (11738290_x_at) / Fold change /veh KRTAP10-11 (11738290_x_at) / RFU MYO3A (11730013_a_at) / Fold change /veh MYO3A (11730013_a_at) / RFU EBF3 (11725865_a_at) / Fold change /veh EBF3 (11725865_a_at) / RFU CAMK2N1 (11719241_x_at) / Fold change /veh CAMK2N1 (11719241_x_at) / RFU C5orf56 (11738088_a_at) / Fold change /veh C5orf56 (11738088_a_at) / RFU OLFML3 (11715873_a_at) / Fold change /veh OLFML3 (11715873_a_at) / RFU LOC100653217 /// NTM (11731650_a_at) / Fold change /veh LOC100653217 /// NTM (11731650_a_at) / RFU MAPK11 (11762145_a_at) / Fold change /veh MAPK11 (11762145_a_at) / RFU FIZ1 (11724087_x_at) / Fold change /veh FIZ1 (11724087_x_at) / RFU OASL (11726364_x_at) / Fold change /veh OASL (11726364_x_at) / RFU SOX15 (11748057_x_at) / Fold change /veh SOX15 (11748057_x_at) / RFU CD79A (11719716_a_at) / Fold change /veh CD79A (11719716_a_at) / RFU HIST1H1D (11736915_at) / Fold change /veh HIST1H1D (11736915_at) / RFU CASKIN2 (11723855_a_at) / Fold change /veh CASKIN2 (11723855_a_at) / RFU LOC730098 (11760151_x_at) / Fold change /veh LOC730098 (11760151_x_at) / RFU OR4N2 (11742367_at) / Fold change /veh OR4N2 (11742367_at) / RFU PRRT2 (11749266_a_at) / Fold change /veh PRRT2 (11749266_a_at) / RFU SNX32 (11753110_a_at) / Fold change /veh SNX32 (11753110_a_at) / RFU CDHR5 (11726645_a_at) / Fold change /veh CDHR5 (11726645_a_at) / RFU RCAN1 (11760418_a_at) / Fold change /veh RCAN1 (11760418_a_at) / RFU FAM167A (11723789_a_at) / Fold change /veh FAM167A (11723789_a_at) / RFU FAM26E (11764081_at) / Fold change /veh FAM26E (11764081_at) / RFU ISYNA1 (11749810_s_at) / Fold change /veh ISYNA1 (11749810_s_at) / RFU ACY1 (11761880_at) / Fold change /veh ACY1 (11761880_at) / RFU 11764098_at / Fold change /veh 11764098_at / RFU SAMD14 (11745864_x_at) / Fold change /veh SAMD14 (11745864_x_at) / RFU NPB (11741838_a_at) / Fold change /veh NPB (11741838_a_at) / RFU TMPRSS6 (11731388_a_at) / Fold change /veh TMPRSS6 (11731388_a_at) / RFU KRTAP10-2 (11738614_at) / Fold change /veh KRTAP10-2 (11738614_at) / RFU ARHGAP8 /// PRR5-ARHGAP8 (11727945_x_at) / Fold change /veh ARHGAP8 /// PRR5-ARHGAP8 (11727945_x_at) / RFU KRTAP5-7 /// NADSYN1 (11734609_at) / Fold change /veh KRTAP5-7 /// NADSYN1 (11734609_at) / RFU RASL12 (11751679_a_at) / Fold change /veh RASL12 (11751679_a_at) / RFU CDKN2B (11736163_a_at) / Fold change /veh CDKN2B (11736163_a_at) / RFU PRF1 (11729649_at) / Fold change /veh PRF1 (11729649_at) / RFU, ZNF638 /// ZNF638-IT1 / Fold change vs veh, ZNF638 /// ZNF638-IT1 / RFU, PANK3 / Fold change vs veh, PANK3 / RFU, SH3YL1 / Fold change vs veh, SH3YL1 / RFU, ZEB2 / Fold change vs veh, ZEB2 / RFU, NRIP1 / Fold change vs veh, NRIP1 / RFU, PTTG1IP / Fold change vs veh, PTTG1IP / RFU, CAPN2 / Fold change vs veh, CAPN2 / RFU, MED14 / Fold change vs veh, MED14 / RFU, SNORA58 / Fold change vs veh, SNORA58 / RFU, C1orf63 / Fold change vs veh, C1orf63 / RFU, LRRFIP1 / Fold change vs veh, LRRFIP1 / RFU, NDUFAF7 / Fold change vs veh, NDUFAF7 / RFU, SLC12A2 / Fold change vs veh, SLC12A2 / RFU, IBTK / Fold change vs veh, IBTK / RFU, ESF1 / Fold change vs veh, ESF1 / Fold change vs veh, TMEM50B / RFU, TAOK1 / Fold change vs veh, TAOK1 / RFU, ACBD3 / Fold change vs veh, ACBD3 / RFU, TMA16 / Fold change vs veh, TMA16 / RFU, RWDD3 / Fold change vs veh, RWDD3 / RFU, BCAT1 / Fold change vs veh, BCAT1 / RFU, EDEM3 / Fold change vs veh, EDEM3 / RFU, TMEM33 / Fold change vs veh, TMEM33 / RFU, WDR75 / Fold change vs veh, WDR75 / RFU, AHCTF1 / Fold change vs veh, AHCTF1 / RFU, TFRC / Fold change vs veh, TFRC / RFU, ZDHHC17 / Fold change vs veh, ZDHHC17 / RFU, NOM1 / Fold change vs veh, NOM1 / RFU, ARL8B / Fold change vs veh, ARL8B / RFU, ZBTB11 / Fold change vs veh, ZBTB11 / RFU, TAMM41 / Fold change vs veh, TAMM41 / RFU, KIAA1704 /// LOC100996395 / Fold change vs veh, KIAA1704 /// LOC100996395 / RFU, ING1 / Fold change vs veh, ING1 / RFU, TRMT61B / Fold change vs veh, TRMT61B / RFU, FUBP3 / Fold change vs veh, FUBP3 / RFU, TP53 / Fold change vs veh, TP53 / RFU, TNKS2 / Fold change vs veh, TNKS2 / RFU, ZFP14 / Fold change vs veh, ZFP14 / RFU, ACTR2 / Fold change vs veh, ACTR2 / RFU, PPP3R1 / Fold change vs veh, PPP3R1 / RFU, PIK3R1 / Fold change vs veh, PIK3R1 / RFU, HNRNPA1 / Fold change vs veh, HNRNPA1 / RFU, RNF170 / Fold change vs veh, RNF170 / RFU, ZNF28 / Fold change vs veh, ZNF28 / RFU, RNGTT / Fold change vs veh, RNGTT / RFU, OGT / Fold change vs veh, OGT / RFU, BRD1 / Fold change vs veh, BRD1 / RFU, MARS / Fold change vs veh, MARS / RFU, ZNF655 / Fold change vs veh, ZNF655 / RFU, FAHD1 / Fold change vs veh, FAHD1 / RFU, BDP1 / Fold change vs veh, BDP1 / RFU, LRRCC1 / Fold change vs veh, LRRCC1 / RFU, ARID1A / Fold change vs veh, ARID1A / RFU, ZNF146 / Fold change vs veh, ZNF146 / RFU, ZNF330 / Fold change vs veh, ZNF330 / RFU, GPN3 / Fold change vs veh, GPN3 / RFU, C9orf123 / Fold change vs veh, C9orf123 / RFU, N4BP2L2 / Fold change vs veh, N4BP2L2 / RFU, ARFIP1 / Fold change vs veh, ARFIP1 / RFU, FAM179B / Fold change vs veh, FAM179B / RFU, BCL10 / Fold change vs veh, BCL10 / RFU, UHRF1BP1L / Fold change vs veh, UHRF1BP1L / RFU, BET1 / Fold change vs veh, BET1 / RFU, CNOT2 / Fold change vs veh, CNOT2 / RFU, ZNF268 / Fold change vs veh, ZNF268 / Fold change vs veh, ZNF507 / RFU, DGCR2 / Fold change vs veh, DGCR2 / RFU, WDSUB1 / Fold change vs veh, WDSUB1 / Fold change vs veh, HSP90B1 /// MIR3652 / RFU, ADSS / Fold change vs veh, ADSS / RFU, GK / Fold change vs veh, GK / RFU, ZNF148 / Fold change vs veh, ZNF148 / RFU, TAF9 / Fold change vs veh, TAF9 / RFU, SLC1A5 / Fold change vs veh, SLC1A5 / RFU, SLMO2 / Fold change vs veh, SLMO2 / RFU, ABCC4 / Fold change vs veh, ABCC4 / RFU, LOC101060439 /// RAP1B / Fold change vs veh, LOC101060439 /// RAP1B / RFU, RFX7 / Fold change vs veh, RFX7 / RFU, GTPBP10 / Fold change vs veh, GTPBP10 / RFU, CNEP1R1 / Fold change vs veh, CNEP1R1 / RFU, BIVM-ERCC5 /// ERCC5 / Fold change vs veh, BIVM-ERCC5 /// ERCC5 / RFU, ILF3 / Fold change vs veh, ILF3 / RFU 11762660_at / Fold change /veh 11762660_at / RFU VCAN (11757783_s_at) / Fold change /veh VCAN (11757783_s_at) / RFU DDX43 (11728927_at) / Fold change /veh DDX43 (11728927_at) / RFU KRT8 (11758188_x_at) / Fold change /veh KRT8 (11758188_x_at) / RFU NKD1 (11759106_at) / Fold change /veh NKD1 (11759106_at) / RFU SRD5A1 (11742802_a_at) / Fold change /veh SRD5A1 (11742802_a_at) / RFU TPSAB1 /// TPSB2 (11721975_s_at) / Fold change /veh TPSAB1 /// TPSB2 (11721975_s_at) / RFU GSTM3 (11746129_a_at) / Fold change /veh GSTM3 (11746129_a_at) / RFU IL23R (11737362_x_at) / Fold change /veh IL23R (11737362_x_at) / RFU TMEM51 (11727254_a_at) / Fold change /veh TMEM51 (11727254_a_at) / RFU PIWIL2 (11732686_x_at) / Fold change /veh PIWIL2 (11732686_x_at) / RFU ORM1 (11744905_x_at) / Fold change /veh ORM1 (11744905_x_at) / RFU CCDC152 (11743942_at) / Fold change /veh CCDC152 (11743942_at) / RFU ECM1 (11717891_a_at) / Fold change /veh ECM1 (11717891_a_at) / RFU IL23R (11748794_a_at) / Fold change /veh IL23R (11748794_a_at) / RFU TNFAIP8L3 (11732012_x_at) / Fold change /veh TNFAIP8L3 (11732012_x_at) / RFU MBOAT4 (11741988_at) / Fold change /veh MBOAT4 (11741988_at) / RFU 11764193_at / Fold change /veh 11764193_at / RFU TMEM53 (11763286_at) / Fold change /veh TMEM53 (11763286_at) / RFU MAGEB2 (11727129_at) / Fold change /veh MAGEB2 (11727129_at) / RFU TMEM200A (11744735_a_at) / Fold change /veh TMEM200A (11744735_a_at) / RFU CCDC152 (11751479_a_at) / Fold change /veh CCDC152 (11751479_a_at) / RFU FAM211A (11726209_a_at) / Fold change /veh FAM211A (11726209_a_at) / RFU RGS16 (11746705_a_at) / Fold change /veh RGS16 (11746705_a_at) / RFU VCAN (11755009_s_at) / Fold change /veh VCAN (11755009_s_at) / RFU RHOB (11743442_s_at) / Fold change /veh RHOB (11743442_s_at) / RFU RGS16 (11720943_a_at) / Fold change /veh RGS16 (11720943_a_at) / RFU RGS16 (11720944_at) / Fold change /veh RGS16 (11720944_at) / RFU, VPS4B / Fold change vs veh, VPS4B / RFU, CREB1 / Fold change vs veh, CREB1 / RFU, DNAJC13 / Fold change vs veh, DNAJC13 / RFU, GNAQ / Fold change vs veh, GNAQ / RFU, CDK5R1 / Fold change vs veh, CDK5R1 / RFU, ZRANB3 / Fold change vs veh, ZRANB3 / RFU, CUL4A / Fold change vs veh, CUL4A / RFU, CCNY / Fold change vs veh, CCNY / RFU, UFL1 / Fold change vs veh, UFL1 / RFU, COG3 / Fold change vs veh, COG3 / RFU, DIAPH2 / Fold change vs veh, DIAPH2 / RFU, SKA2 / Fold change vs veh, SKA2 / RFU, AFF3 / Fold change vs veh, AFF3 / RFU, LMF1 / Fold change vs veh, LMF1 / RFU, IPO11 / Fold change vs veh, IPO11 / RFU, DFFB / Fold change vs veh, DFFB / RFU, FOXP1 / Fold change vs veh, FOXP1 / RFU, CARD8 / Fold change vs veh, CARD8 / RFU, STRN3 / Fold change vs veh, STRN3 / RFU, ADK / Fold change vs veh, ADK / RFU, RASSF2 / Fold change vs veh, RASSF2 / RFU, WIPF1 / Fold change vs veh, WIPF1 / RFU, LARP1B / Fold change vs veh, LARP1B / RFU, RASA1 / Fold change vs veh, RASA1 / RFU, RB1 / Fold change vs veh, RB1 / RFU, PPFIA1 / Fold change vs veh, PPFIA1 / RFU, MAT2A / Fold change vs veh, MAT2A / RFU, CCT5 / Fold change vs veh, CCT5 / RFU, WDR92 / Fold change vs veh, WDR92 / RFU, CUX1 / Fold change vs veh, CUX1 / RFU, TTC7A / Fold change vs veh, TTC7A / RFU, TMEM135 / Fold change vs veh, TMEM135 / RFU, DEPTOR / Fold change vs veh, DEPTOR / RFU, CPM / Fold change vs veh, CPM / RFU, DNAJB6 / Fold change vs veh, DNAJB6 / RFU, CACNA2D3 / Fold change vs veh, CACNA2D3 / RFU, DTX4 / Fold change vs veh, DTX4 / RFU, TFCP2 / Fold change vs veh, TFCP2 / RFU, GMCL1 /// GMCL1P1 / Fold change vs veh, GMCL1 /// GMCL1P1 / RFU, AEBP2 / Fold change vs veh, AEBP2 / RFU, SNHG1 /// SNORD22 /// SNORD25 /// SNORD26 /// SNORD27 /// SNORD28 /// SNORD29 /// SNORD31 / Fold change vs veh, SNHG1 /// SNORD22 /// SNORD25 /// SNORD26 /// SNORD27 /// SNORD28 /// SNORD29 /// SNORD31 / Fold change (Aza/veh), C12orf56 (ProbeSet 11735607_a_at) / Fold change (ACY-1035/veh), C12orf56 (ProbeSet 11735607_a_at) / Fold change (Aza/veh), FGFR1OP (ProbeSet 11751329_s_at) / Fold change (ACY-1035/veh), FGFR1OP (ProbeSet 11751329_s_at) / Fold change (Aza/veh), VPS36 (ProbeSet 11739960_a_at) / Fold change (ACY-1035/veh), VPS36 (ProbeSet 11739960_a_at) / RFU SYPL1 (11715823_x_at) / Fold change /veh SYPL1 (11715823_x_at) / RFU IGFBP7 (11715501_s_at) / Fold change /veh IGFBP7 (11715501_s_at) / RFU REEP3 (11722064_at) / Fold change /veh REEP3 (11722064_at) / RFU IGLL1 (11728026_x_at) / Fold change /veh IGLL1 (11728026_x_at): dose or concentration left out as unconfirmed
# Conditions: MV-4-11 cells, 48 hours
smiles,measurement,value
Nc1ccc(-c2cccs2)cc1NC(=O)c1ccc2c(c1)cc(C1CC1)n2CCN1CCOCC1 [ACY-1035],Fold change /veh CCDC152 (11743942_at),1.01
